Test systems include SK-MEL-5 melanoma; OVCAR-5 ovarian; SK-OV-3 ovarian; U251 CNS; SNB-75 CNS; CCRF-CEM leukemia; COLO 205 colon; SF-268 CNS; KM20L2 colon; TK-10 renal; EKVX NSCLC; IGROV1 ovarian; SR leukemia; HCC-2998 colon; NCI-H522 lung; MALME-3M melanoma; HL-60(TB) leukemia; UACC-62 melanoma; SK-MEL-28 melanoma; MDA-MB-435.
Holding throughout (test): DTP human tumour cell line panel, 48 h

For orientation: TGI means the concentration at which net growth stops. Low values mean more potent growth arrest, high ones less potent growth arrest.

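Assay format: 96-well plates, 48-hour exposure. TGI: total growth inhibition.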

Turning to `Cc1cc(NS(=O)(=O)c2ccc(Nc3c4ccccc4nc4c(C(=O)N5CCN(CCO)CC5)cccc34)cc2)no1`, the TGI with SK-MEL-5 melanoma, in the assay on OVCAR-5 ovarian, in the assay on SK-OV-3 ovarian, with U251 CNS, with SNB-75 CNS and with CCRF-CEM leukemia was more than 100 µM throughout. For the same compound, the TGI with COLO 205 colon, in the assay with SF-268 CNS, in the assay with KM20L2 colon, in the assay on TK-10 renal, in the assay on EKVX NSCLC and in the assay with IGROV1 ovarian was more than 100 µM throughout. For the same compound, the TGI with SR leukemia, in the assay with HCC-2998 colon, in the assay on NCI-H522 lung, in the assay on MALME-3M melanoma, in the assay on HL-60(TB) leukemia and in the assay with UACC-62 melanoma was more than 100 µM throughout. The compound further showed a TGI in the assay on SK-MEL-28 melanoma of more than 100 µM.
Turning to `Cn1cc(C2(C)CC(C)(C)c3c2n(C)c2ccccc32)c2ccccc21` (stereo unspecified), the TGI with SK-MEL-5 melanoma, in the assay with SK-OV-3 ovarian, with U251 CNS, with SNB-75 CNS, with CCRF-CEM leukemia and in the assay on COLO 205 colon was more than 100 µM in each case. The TGI in the assay on SF-268 CNS, with KM20L2 colon, in the assay on TK-10 renal, in the assay with EKVX NSCLC, with IGROV1 ovarian and in the assay with HCC-2998 colon was more than 100 µM throughout. In addition, the TGI in the assay on NCI-H522 lung, with MALME-3M melanoma, in the assay on UACC-62 melanoma and in the assay with SK-MEL-28 melanoma was more than 100 µM in each case.
For the compound `CCOC(=O)c1c(N2CCOCC2)[nH]c(=O)c(C(c2c(Cl)cccc2Cl)c2c(O)c(C(=O)OCC)c(N3CCOCC3)[nH]c2=O)c1O`, the TGI in the assay with SK-MEL-5 melanoma is 16.1 µM; in the assay with OVCAR-5 ovarian it was 27.5 µM; in the assay on MDA-MB-435 it was 12.1 µM; with SK-OV-3 ovarian, 24.9 µM; in the assay on U251 CNS it was 15.8 µM; with SNB-75 CNS it was 15.6 µM. Also, the TGI was found to be 3.56 µM with CCRF-CEM leukemia; 14.9 µM in the assay on COLO 205 colon; 22.2 µM in the assay on SF-268 CNS; 14.3 µM in the assay on TK-10 renal; 32.9 µM with EKVX NSCLC; 15 µM in the assay on IGROV1 ovarian. Besides, the TGI stood at 15.9 µM with SR leukemia; 34 µM with HCC-2998 colon; 3.72 µM in the assay with NCI-H522 lung; 7.91 µM with MALME-3M melanoma; 4.37 µM in the assay on HL-60(TB) leukemia; 20 µM in the assay on UACC-62 melanoma. Further, in the assay with SK-MEL-28 melanoma, the TGI was 4.19 µM.
In the case of `CCOC(=O)CC(C)C1(C(=O)OCC)CCCCC1=O` (stereo unspecified), the TGI with SK-MEL-5 melanoma, with OVCAR-5 ovarian, in the assay with SK-OV-3 ovarian, with U251 CNS, in the assay with SNB-75 CNS and in the assay on CCRF-CEM leukemia was more than 100 µM throughout. The TGI with COLO 205 colon, in the assay on SF-268 CNS, in the assay with KM20L2 colon, in the assay with TK-10 renal, in the assay with EKVX NSCLC and in the assay with IGROV1 ovarian was more than 100 µM in each case. The total growth inhibition concentration (TGI) in the assay with SR leukemia was 55.4 µM; in the assay on HCC-2998 colon it was more than 100 µM; in the assay with NCI-H522 lung it was more than 100 µM; with MALME-3M melanoma, more than 100 µM; in the assay with HL-60(TB) leukemia, more than 100 µM; in the assay on UACC-62 melanoma, more than 100 µM. Further, in the assay with SK-MEL-28 melanoma, the TGI is more than 100 µM.
As for `O=Cc1ccccc1COC(=O)c1cc(C(=O)OCc2ccccc2C=O)c(C(=O)OCc2ccccc2C=O)cc1C(=O)OCc1ccccc1C=O`, the TGI with SK-MEL-5 melanoma is more than 100 µM; with OVCAR-5 ovarian, more than 100 µM; in the assay on SK-OV-3 ovarian, more than 100 µM; with U251 CNS, more than 100 µM; with SNB-75 CNS it was 65.4 µM; in the assay with CCRF-CEM leukemia, more than 100 µM. For the same compound, the TGI in the assay with COLO 205 colon, in the assay with SF-268 CNS, with KM20L2 colon, in the assay with TK-10 renal, in the assay with EKVX NSCLC and in the assay on IGROV1 ovarian was more than 100 µM each time. Also, the TGI in the assay on SR leukemia, in the assay on HCC-2998 colon, with NCI-H522 lung, in the assay on MALME-3M melanoma, with HL-60(TB) leukemia and in the assay on UACC-62 melanoma was more than 100 µM throughout. The TGI in the assay on SK-MEL-28 melanoma is more than 100 µM.
For `O=c1cc(-c2ccc(Oc3ccccc3)cc2)[nH]c2cc3c(cc12)OCO3`, the TGI in the assay with SK-MEL-5 melanoma, in the assay with U251 CNS, with SNB-75 CNS, in the assay with CCRF-CEM leukemia, with COLO 205 colon and in the assay on SF-268 CNS was more than 100 µM each time. The TGI in the assay with KM20L2 colon, in the assay on TK-10 renal, in the assay with EKVX NSCLC, in the assay with IGROV1 ovarian, in the assay on SR leukemia and in the assay on HCC-2998 colon was more than 100 µM each time. Further, the TGI in the assay on MALME-3M melanoma, with HL-60(TB) leukemia, with UACC-62 melanoma and in the assay with SK-MEL-28 melanoma was more than 100 µM in each case.
Turning to `CCN1CCN(c2nc3ccccc3c3c2CCOc2ccccc2-3)CC1`, the concentration for total growth inhibition (TGI) with SK-MEL-5 melanoma is 36.7 µM; in the assay with OVCAR-5 ovarian, more than 65.2 µM; in the assay on MDA-MB-435, more than 62.7 µM; with SK-OV-3 ovarian it was more than 70.7 µM; with U251 CNS, more than 79.2 µM; with SNB-75 CNS, more than 62.6 µM. Further, the TGI is more than 83.6 µM with CCRF-CEM leukemia; 37.2 µM in the assay with COLO 205 colon; more than 100 µM in the assay on SF-268 CNS; more than 56.9 µM in the assay on TK-10 renal; more than 100 µM in the assay with EKVX NSCLC; more than 58.3 µM with IGROV1 ovarian. Further, the TGI with SR leukemia is 24.8 µM; in the assay with HCC-2998 colon it was 37.3 µM; in the assay on NCI-H522 lung, more than 62.3 µM; in the assay on MALME-3M melanoma it was 35.3 µM; in the assay on HL-60(TB) leukemia, more than 77.3 µM; with UACC-62 melanoma it was 34.7 µM. Further, the TGI with SK-MEL-28 melanoma worked out at 32.4 µM.
With `O=C(CC(=O)n1nc(-c2ccccc2)c(N=Nc2ccc(Cl)cc2)c1-c1ccccc1)Nc1ccc(Cl)cc1`, the TGI in the assay with SK-MEL-5 melanoma was more than 100 µM; with OVCAR-5 ovarian, more than 100 µM; with SK-OV-3 ovarian it was more than 100 µM; in the assay with U251 CNS it was more than 100 µM; with SNB-75 CNS, more than 100 µM; with CCRF-CEM leukemia, more than 62.8 µM. Also, the TGI with COLO 205 colon is more than 63.9 µM; in the assay with SF-268 CNS it was more than 100 µM; in the assay with KM20L2 colon, more than 100 µM; in the assay with TK-10 renal it was more than 100 µM; in the assay with EKVX NSCLC, more than 100 µM; in the assay on IGROV1 ovarian, more than 100 µM. Further, the concentration for total growth inhibition (TGI) in the assay with SR leukemia, in the assay with HCC-2998 colon, in the assay with NCI-H522 lung, in the assay on MALME-3M melanoma, in the assay with HL-60(TB) leukemia and with UACC-62 melanoma was more than 100 µM in each case. Besides, the TGI in the assay with SK-MEL-28 melanoma is more than 100 µM.
